Results taken from PubChem BioAssay (NCI).
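48-hour exposure; five concentrations; linearly interpolated endpoints. Definition used: TGI = concentration required for complete inhibition of growth.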

Tests used:
Assay in all cases: NCI-60 cell line screen, 48 h
[1] = test system: PC-3 prostate
[2] = test system: SK-OV-3 ovarian
[3] = test system: T-47D breast
[4] = test system: SW-620 colon
[5] = test system: SF-268 CNS
[6] = test system: HOP-92 NSCLC
[7] = test system: UACC-62 melanoma
[8] = test system: U251 CNS
[9] = test system: IGROV1 ovarian
[10] = test system: LOX IMVI melanoma
[11] = test system: SK-MEL-28 melanoma
[12] = test system: NCI-H460 lung
[13] = test system: UO-31 renal
[14] = test system: CCRF-CEM leukemia
[15] = test system: SK-MEL-5 melanoma
[16] = test system: RXF 393 renal
[17] = test system: RPMI-8226 leukemia
[18] = test system: SN12C renal
[19] = test system: HL-60(TB) leukemia
[20] = test system: A498 renal

COc1ccc2cc(-c3ccc(OC)c(OC)c3)c(=O)oc2c1
TGI [1]: > 100 µM
TGI [2]: > 100 µM
TGI [3]: > 100 µM
TGI [4]: > 100 µM
TGI [5]: > 100 µM
TGI [6]: > 100 µM
TGI [7]: > 100 µM
TGI [8]: > 100 µM
TGI [9]: > 100 µM
TGI [10]: > 100 µM
TGI [11]: > 100 µM
TGI [12]: > 100 µM
TGI [13]: > 100 µM
TGI [14]: > 100 µM
TGI [15]: > 100 µM
TGI [16]: 68.3 µM
TGI [17]: > 100 µM
TGI [18]: > 100 µM
TGI [19]: > 100 µM
TGI [20]: > 100 µM

C/C(=N/NC(=S)N1CCCCCC1)c1ccccc1O
TGI [1]: > 100 µM
TGI [2]: > 100 µM
TGI [3]: > 33.6 µM
TGI [4]: > 100 µM
TGI [5]: > 24.5 µM
TGI [6]: > 100 µM
TGI [7]: 17.7 µM
TGI [8]: > 100 µM
TGI [9]: > 39.7 µM
TGI [10]: > 78.7 µM
TGI [11]: > 100 µM
TGI [12]: 25.2 µM
TGI [13]: > 88.3 µM
TGI [14]: > 30.8 µM
TGI [15]: > 37.7 µM
TGI [16]: > 93 µM
TGI [17]: 40.4 µM
TGI [18]: 40.9 µM
TGI [19]: 7.8 µM
TGI [20]: > 74 µM

C/C=C/C=C/C1=NN(c2cccc(S(=O)(=O)O)c2)C2(C1)C(Cl)C(=O)N2c1nc2ccccc2s1 (stereo not given)
TGI [1]: 26.3 µM
TGI [2]: 33.9 µM
TGI [3]: 21.3 µM
TGI [4]: 43.1 µM
TGI [5]: 38.4 µM
TGI [6]: 48.2 µM
TGI [7]: 26.2 µM
TGI [8]: 23.8 µM
TGI [9]: 25.4 µM
TGI [10]: 24.5 µM
TGI [11]: 43.6 µM
TGI [12]: 31.6 µM
TGI [13]: 4.15 µM
TGI [14]: 13.1 µM
TGI [15]: 25.1 µM
TGI [16]: 24.3 µM
TGI [17]: > 51.6 µM
TGI [18]: 32.1 µM
TGI [19]: 33.1 µM
TGI [20]: 31.8 µM

COC(=O)/C=C1/OC(c2ccc(Br)cc2)=C(Br)C1=O
TGI [1]: 17.5 µM
TGI [2]: 38.2 µM
TGI [3]: 15.1 µM
TGI [4]: 7.49 µM
TGI [5]: 17 µM
TGI [6]: 25.2 µM
TGI [7]: 20.5 µM
TGI [8]: 6.88 µM
TGI [9]: 17 µM
TGI [10]: 8.4 µM
TGI [11]: 27.2 µM
TGI [12]: 36.6 µM
TGI [13]: 24.4 µM
TGI [14]: 6.22 µM
TGI [15]: 19.9 µM
TGI [16]: 11.1 µM
TGI [17]: 6.06 µM
TGI [18]: 17.6 µM
TGI [19]: 7.87 µM
TGI [20]: 30.4 µM
